pIC50, pKi: −log10 of the molar value. The source made the active and inactive calls. No cut-off for these calls is given here.
Key:
[1] = biological target: Acetylcholinesterase (Electrophorus electricus) (UniProt O42275); assay: Inhibition of Electrophorus electricus AChE using acetylthiocholine iodide as substrate at 10 uM after 30 mins by Ellman's method
[2] = biological target: Cyclin-dependent kinase 5/CDK5 activator 1 (Homo sapiens, UniProt Q00535); assay: Inhibition of CDK5/p-35 (unknown origin); assay type: protein-complex assay
Acetylcholinesterase [3] = biological target: T1, Acetylcholinesterase (Electrophorus electricus, UniProt O42275); assay: Non-competitive inhibition of Electrophorus electricus AChE using acetylthiocholine iodide as substrate by Lineweaver-Burk reciprocal plot analysis
CDK6/cyclin D2 = CDK6/cyclin D2 (Homo sapiens, UniProt P30279+Q00534); assay: Inhibition of CDK6/cyclin-D2 (unknown origin); assay type: protein-complex assay
[4] = biological target: Cyclin-dependent kinase 1/cyclin B1 (Homo sapiens, UniProt P06493); assay: Inhibition of CDK1/cyclin-B (unknown origin); assay type: protein-complex assay
[5] = biological target: Cyclin-dependent kinase 4/cyclin D2 (Homo sapiens, UniProt P11802+P30279); assay: Inhibition of CDK4/cyclin-D2 (unknown origin); assay type: protein-complex assay
Cholinesterase [6] = biological target: T2, Cholinesterase (Equus caballus, UniProt P81908); assay: Inhibition of equine serum BuChE using S-butyrylthiocholine iodide as substrate after 30 mins by Ellman's method
CDK4/Cyclin D3 = CDK4/Cyclin D3 (Homo sapiens, UniProt P11802); assay: Inhibition of CDK4/cyclin-D3 (unknown origin); assay type: protein-complex assay
Cholinesterase [7] = biological target: T2, Cholinesterase; assay: Non-competitive inhibition of equine serum BuChE using S-butyrylthiocholine iodide as substrate by Lineweaver-Burk reciprocal plot analysis
Acetylcholinesterase [8] = biological target: T1, Acetylcholinesterase; assay: Inhibition of Electrophorus electricus AChE using acetylthiocholine iodide as substrate after 30 mins by Ellman's method
[9] = biological target: Cyclin-dependent kinase 2/cyclin E1 (Homo sapiens, UniProt P24941); assay: Inhibition of CDK2/cyclin-E (unknown origin); assay type: protein-complex assay
[10] = biological target: Acetylcholinesterase (Homo sapiens) (UniProt P22303); assay: Ratio of physostigmine IC50 to compound IC50 for acetylcholinesterase (unknown origin)
Sequence of Acetylcholinesterase (Homo sapiens) (P22303 whole entry): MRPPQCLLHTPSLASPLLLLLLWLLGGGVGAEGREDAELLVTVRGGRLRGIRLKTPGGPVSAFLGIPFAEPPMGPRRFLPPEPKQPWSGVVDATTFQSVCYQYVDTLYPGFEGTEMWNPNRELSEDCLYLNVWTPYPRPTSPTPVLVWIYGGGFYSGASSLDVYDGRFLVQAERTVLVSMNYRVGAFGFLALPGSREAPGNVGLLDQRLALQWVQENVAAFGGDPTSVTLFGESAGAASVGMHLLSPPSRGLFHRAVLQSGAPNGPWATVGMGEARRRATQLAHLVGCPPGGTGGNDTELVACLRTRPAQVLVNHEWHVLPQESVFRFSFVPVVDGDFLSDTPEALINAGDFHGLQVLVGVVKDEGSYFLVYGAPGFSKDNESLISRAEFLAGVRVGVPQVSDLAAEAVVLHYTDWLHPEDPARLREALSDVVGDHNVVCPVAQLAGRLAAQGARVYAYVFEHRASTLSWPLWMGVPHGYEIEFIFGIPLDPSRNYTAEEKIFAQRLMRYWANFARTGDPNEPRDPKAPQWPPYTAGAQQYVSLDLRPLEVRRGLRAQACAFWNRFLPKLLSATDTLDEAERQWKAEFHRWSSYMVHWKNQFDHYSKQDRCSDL

Sequence of Acetylcholinesterase (Electrophorus electricus) (O42275 24-633 limits assumed): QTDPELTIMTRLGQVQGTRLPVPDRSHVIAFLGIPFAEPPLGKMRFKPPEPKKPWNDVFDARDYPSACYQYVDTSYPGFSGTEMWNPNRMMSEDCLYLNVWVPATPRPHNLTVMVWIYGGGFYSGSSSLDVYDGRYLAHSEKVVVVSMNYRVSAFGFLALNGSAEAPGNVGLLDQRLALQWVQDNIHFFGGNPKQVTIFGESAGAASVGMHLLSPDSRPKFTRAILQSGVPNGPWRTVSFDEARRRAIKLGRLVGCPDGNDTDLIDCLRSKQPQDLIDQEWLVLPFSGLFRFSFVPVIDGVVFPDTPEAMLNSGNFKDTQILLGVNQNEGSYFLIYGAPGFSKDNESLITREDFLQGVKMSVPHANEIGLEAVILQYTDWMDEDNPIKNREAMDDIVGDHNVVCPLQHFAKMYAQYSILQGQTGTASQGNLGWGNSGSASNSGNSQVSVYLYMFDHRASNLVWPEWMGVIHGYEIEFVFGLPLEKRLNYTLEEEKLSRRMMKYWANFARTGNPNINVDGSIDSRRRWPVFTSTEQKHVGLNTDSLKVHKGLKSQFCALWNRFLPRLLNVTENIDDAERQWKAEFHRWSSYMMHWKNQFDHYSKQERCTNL
T1 sequence (O42275 whole entry): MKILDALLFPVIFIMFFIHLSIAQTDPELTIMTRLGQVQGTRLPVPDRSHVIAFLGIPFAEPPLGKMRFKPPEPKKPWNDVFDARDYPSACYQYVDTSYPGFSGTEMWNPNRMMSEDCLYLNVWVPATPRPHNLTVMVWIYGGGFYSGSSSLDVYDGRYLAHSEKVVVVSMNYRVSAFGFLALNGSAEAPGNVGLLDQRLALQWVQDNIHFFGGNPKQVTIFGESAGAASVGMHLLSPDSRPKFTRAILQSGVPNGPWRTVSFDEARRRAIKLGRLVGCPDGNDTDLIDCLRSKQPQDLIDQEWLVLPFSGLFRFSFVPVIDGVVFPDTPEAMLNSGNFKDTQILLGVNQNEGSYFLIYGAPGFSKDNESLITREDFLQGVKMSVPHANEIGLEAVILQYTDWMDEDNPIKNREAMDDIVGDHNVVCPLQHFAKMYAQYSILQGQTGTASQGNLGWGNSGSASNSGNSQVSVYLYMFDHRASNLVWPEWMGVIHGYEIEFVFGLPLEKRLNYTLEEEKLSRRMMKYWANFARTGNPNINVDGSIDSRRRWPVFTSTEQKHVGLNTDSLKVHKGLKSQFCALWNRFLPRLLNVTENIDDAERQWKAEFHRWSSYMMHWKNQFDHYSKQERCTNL
T2 sequence (P81908 whole entry): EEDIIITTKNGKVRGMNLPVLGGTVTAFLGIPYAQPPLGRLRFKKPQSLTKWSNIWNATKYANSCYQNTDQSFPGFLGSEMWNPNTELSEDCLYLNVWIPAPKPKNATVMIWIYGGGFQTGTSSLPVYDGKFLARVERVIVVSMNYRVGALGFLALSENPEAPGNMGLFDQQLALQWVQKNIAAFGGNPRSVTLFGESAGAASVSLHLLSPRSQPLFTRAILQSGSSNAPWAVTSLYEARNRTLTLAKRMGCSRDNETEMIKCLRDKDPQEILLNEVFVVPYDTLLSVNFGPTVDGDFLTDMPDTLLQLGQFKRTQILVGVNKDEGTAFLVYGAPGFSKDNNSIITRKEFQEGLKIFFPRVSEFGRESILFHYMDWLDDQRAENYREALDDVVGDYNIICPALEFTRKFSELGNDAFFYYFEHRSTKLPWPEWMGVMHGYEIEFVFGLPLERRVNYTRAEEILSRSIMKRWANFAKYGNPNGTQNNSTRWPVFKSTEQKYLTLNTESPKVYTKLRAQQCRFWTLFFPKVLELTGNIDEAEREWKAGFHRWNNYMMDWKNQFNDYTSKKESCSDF
Sequence of CDK4/Cyclin D3 (P11802 whole entry): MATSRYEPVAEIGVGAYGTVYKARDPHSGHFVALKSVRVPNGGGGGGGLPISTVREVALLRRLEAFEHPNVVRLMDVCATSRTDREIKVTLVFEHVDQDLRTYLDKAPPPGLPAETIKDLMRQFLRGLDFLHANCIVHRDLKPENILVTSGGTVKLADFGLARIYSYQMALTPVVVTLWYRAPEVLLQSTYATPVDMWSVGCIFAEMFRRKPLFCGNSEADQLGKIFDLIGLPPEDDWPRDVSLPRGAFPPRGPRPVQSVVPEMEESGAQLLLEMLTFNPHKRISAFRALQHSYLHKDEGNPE
Sequence of CDK4/Cyclin D3 (P30281 whole entry, further chain): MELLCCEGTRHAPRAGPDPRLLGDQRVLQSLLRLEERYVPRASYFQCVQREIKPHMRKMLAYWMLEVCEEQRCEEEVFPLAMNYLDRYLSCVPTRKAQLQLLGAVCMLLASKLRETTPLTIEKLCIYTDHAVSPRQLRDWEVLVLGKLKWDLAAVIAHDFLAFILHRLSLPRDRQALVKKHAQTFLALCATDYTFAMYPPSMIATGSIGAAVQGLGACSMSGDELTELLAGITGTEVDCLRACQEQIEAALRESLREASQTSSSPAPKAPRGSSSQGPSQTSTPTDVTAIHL
Sequence of Cyclin-dependent kinase 4/cyclin D2 (P11802 whole entry): as the sequence (P11802 whole entry) above
Sequence of Cyclin-dependent kinase 4/cyclin D2 (P30279 whole entry): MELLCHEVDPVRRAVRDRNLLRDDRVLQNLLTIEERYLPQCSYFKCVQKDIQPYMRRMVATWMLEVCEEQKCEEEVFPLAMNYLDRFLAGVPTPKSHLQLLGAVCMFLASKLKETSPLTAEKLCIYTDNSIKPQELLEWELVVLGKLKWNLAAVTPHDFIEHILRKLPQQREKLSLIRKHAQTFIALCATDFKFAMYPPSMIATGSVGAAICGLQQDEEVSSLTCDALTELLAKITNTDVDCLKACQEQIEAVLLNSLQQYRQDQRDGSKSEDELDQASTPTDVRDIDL
Sequence of CDK6/cyclin D2 (Q00534 whole entry): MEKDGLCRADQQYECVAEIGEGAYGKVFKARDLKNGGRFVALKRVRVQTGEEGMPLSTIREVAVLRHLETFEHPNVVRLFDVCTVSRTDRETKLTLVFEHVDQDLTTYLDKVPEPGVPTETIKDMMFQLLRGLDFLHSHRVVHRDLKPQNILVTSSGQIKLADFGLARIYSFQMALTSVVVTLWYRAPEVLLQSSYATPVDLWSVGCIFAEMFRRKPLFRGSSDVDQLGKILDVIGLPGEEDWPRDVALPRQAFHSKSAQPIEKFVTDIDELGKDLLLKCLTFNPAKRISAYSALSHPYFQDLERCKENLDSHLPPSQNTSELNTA
Sequence of CDK6/cyclin D2 (P30279 whole entry): as the sequence (P30279 whole entry) above
Sequence of Cyclin-dependent kinase 5/CDK5 activator 1 (Q00535 whole entry): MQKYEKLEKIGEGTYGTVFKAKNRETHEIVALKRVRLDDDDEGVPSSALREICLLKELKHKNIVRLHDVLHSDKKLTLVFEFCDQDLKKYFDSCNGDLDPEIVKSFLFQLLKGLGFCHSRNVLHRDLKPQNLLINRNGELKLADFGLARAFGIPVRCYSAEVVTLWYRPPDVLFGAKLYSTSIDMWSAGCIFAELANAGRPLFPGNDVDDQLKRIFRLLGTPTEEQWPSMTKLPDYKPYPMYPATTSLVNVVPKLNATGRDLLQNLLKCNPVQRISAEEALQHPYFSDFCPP
Sequence of Cyclin-dependent kinase 5/CDK5 activator 1 (Q15078 whole entry, further chain): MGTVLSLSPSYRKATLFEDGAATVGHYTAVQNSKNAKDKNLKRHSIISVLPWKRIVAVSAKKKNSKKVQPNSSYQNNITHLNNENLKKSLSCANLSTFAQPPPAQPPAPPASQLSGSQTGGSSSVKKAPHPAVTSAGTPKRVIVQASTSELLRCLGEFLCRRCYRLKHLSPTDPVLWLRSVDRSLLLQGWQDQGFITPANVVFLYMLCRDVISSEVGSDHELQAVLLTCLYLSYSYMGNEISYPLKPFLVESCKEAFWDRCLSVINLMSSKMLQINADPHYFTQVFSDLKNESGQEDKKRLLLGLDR

Row | Compound | inhibition [1] | pIC50 [2] | pKi (Acetylcholinesterase [3]) | pIC50 (CDK6/cyclin D2) | pIC50 [4] | pIC50 [5] | pIC50 (Cholinesterase [6]) | pIC50 (CDK4/Cyclin D3) | pKi (Cholinesterase [7]) | pIC50 (Acetylcholinesterase [8]) | pIC50 [9] | Ratio IC50 [10]
1 | O=C(c1ccccc1Cl)c1nccc2c1[nH]c1ccccc12 | inactive |  |  |  |  |  |  |  |  |  |  | 
2 | O=C1c2ccccc2-[n+]2ccc3c([nH]c4ccccc43)c21 [FASCAPLYSIN] | 86% | 4.70 | 5.64 | < 4.30 | < 4.00 | < 4.00 | 4.04 | < 4.00 | 4.31 | 5.83 | < 4.30 | 
3 | COC(=O)C1=CO[C@@H](C)[C@H]2C[n+]3ccc4c([nH]c5ccccc54)c3C[C@H]12 |  |  |  |  |  |  |  |  |  |  |  | 10
